Assay results reported in patent publication US10548895B2, “Ligands that target Plasmodium sporozoite binding sites on CD81 and therapeutic methods using them” (American University In Cairo (AUC), priority 2014, dated 2020).
“Also recorded” adds a separate entry of the source. Read-outs that look alike come from different tables or passages of the source.

Legend:
CD81-LEL = target: T1, CD81-LEL (Homo sapiens, UniProt P60033); experiment: Surface plasmon resonance binding of ligands to immobilized CD81-LEL; settings: for binding-dissociation behavior (in words) / Binding (change in response units) / Dissociation 1 (change in response units) / Dissociation 2 (change in response units): SPR; for Binding (change in response units): 3 min association; for Dissociation 1 (change in response units) / Dissociation 2 (change in response units): dissociation interval
T1 construct: A recombinant form of the CD81-LEL protein with a GST tag; gift of Dr. Shoshana Levy, Stanford University
T1 sequence (P60033 113-201 limits assumed): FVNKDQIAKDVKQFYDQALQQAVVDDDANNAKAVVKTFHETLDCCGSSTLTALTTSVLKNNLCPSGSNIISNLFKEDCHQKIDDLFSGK
Procedure: SPR analysis was performed using a Biacore T200 workstation (GE Healthcare, NJ, USA). A recombinant form of the CD81-LEL protein with a GST tag (generously provided by Dr. Shoshana Levy, Stanford University) was used to confirm, using an established experimental technique, the binding of several ligands to the protein. Briefly, 10 μM CD81-LEL-GST diluted into 10 mM Na-Acetate buffer pH 4.5 was immobilized for 15 min at a flow speed of 5 μl/min onto a CM5 sensor chip using amine-coupling (EDC-NHS), Approximately 20,000 RU of protein were immobilized on the chip. The ligands were prepared as 600 μM solutions in PBS-0.05% Tween-80 (the running buffer) and they were introduced to the protein using a pre-programmed 3 minute association and 1 minute dissociation interval.
SPR analysis was performed using a Biacore T100 workstation (GE Healthcare, NJ, USA). […] Approximately 20,000 RU of protein were immobilized on the chip. The ligands were prepared as 200 uM solutions in PBS-1% DMSO (the running buffer) and they were introduced to the protein using a pre-programmed 3 min association and 1 min dissociation interval.

[1] = target: T2, native CD81 on Raji cells (Homo sapiens, UniProt P60033); experiment: Antibody neutralizing assay: inhibition of JS-81 anti-CD81 antibody binding on Raji cells (FACS); format: cell-based; settings: for inhibition at 50 µM / inhibition at 100 µM / inhibition at 400 µM: read-out: Inhibition of JS-81 Binding (%)
T2 construct: endogenous in cells; host or cells: Raji cells (human B cell line)
T2 sequence (P60033 1-236): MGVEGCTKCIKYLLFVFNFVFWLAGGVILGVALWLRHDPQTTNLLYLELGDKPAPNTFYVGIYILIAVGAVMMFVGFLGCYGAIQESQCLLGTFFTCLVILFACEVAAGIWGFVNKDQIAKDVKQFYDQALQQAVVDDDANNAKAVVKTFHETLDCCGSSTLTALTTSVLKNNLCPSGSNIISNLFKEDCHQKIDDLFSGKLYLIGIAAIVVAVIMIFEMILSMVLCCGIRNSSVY
Procedure: For antibody neutralization assay Raji cells were used, a human B cell line that expressed high amounts of CD81 on the surface (data not shown), Cells were grown in RPMI medium (10% FCS, 1% penicillin/streptomycin, 1% L-glutamine, 1% non-essential amino acids, 1% sodium pyruvate, pH 7.4, at 37° C. with 5% CO2). 2×10^5 cells were incubated with or without different concentrations (50 μM, 100 μM, 400 μM and 1 mM) of indicated inhibitor for 20 min at room temperature, subsequently 1 ul (16 ng/μl) of FITC-labeled anti CD81 antibody (BD Pharmingen, 551108) was added to the cells and incubated for 20 min (antibody titration was performed to obtain a working dilution range, data not shown). Cells were washed and analyzed by FACS (BD FACSCalibur, software: Cell Quest Pro). Mean Fluorescence Intensity MFI was calculated using Flowjo software (TreesStar, www.flowjo.com).

Plasmodium yoelii [2] = experiment: Sporozoite development assay, P. yoelii in HepG2-CD81 cells; format: cell-based; settings: for Percent Infection: HepG2-CD81, Plasmodium yoelii, 400 uM compound
Procedure: (§1) Anopheles stephensi mosquitoes were fed on mice infected with Plasmodium yoelii 17XNL parasites. On day 14 post bloodmeal, salivary glands were harvested, homogenized, sporozoite number was determined using a hemocytometer and the indicated number of sporozoites was added to cell monolayers, Plasmodium falciparum sporozoites were generated by membrane feeding An. stephensi mosquitoes using gametocyte cultures generated in vitro.
(§2) HepG2-CD81 (14) cells were maintained in DMEM supplemented with 10% fetal calf serum and 1 mM glutamine (DMEM/FCS), mAb 2E6 was used for development assays and is directed against Plasmodium Hsp 70 (15) and mAb 2A10 is directed against the repeat region of P. falciparum CSP and was used for invasion assays.
(§3) 5×10^5 HepG2-CD81 cells were plated on collagen coated Lab-Tek wells and allowed to adhere overnight. The following day, cells were preincubated with 400 uM of compound for 30 minutes at 37° C. Controls were pre-incubated with DMSO at the same concentration in which it was found in the compound solutions. 10^5 sporozoites were added to each well and in the case of P. falciparum, incubated for 1.5 hours and scored for invasion whereas in the case of P. yoelii, incubated for 44 hours and scored for exoerythrocytic stages.

Plasmodium berghei = experiment: Sporozoite infection assay, P. berghei in Hepa1-6 cells; format: cell-based; settings: for Percent Infection: Hepa1-6 Cells, Plasmodium berghei; for effect on infection (in words): Hepa1-6 cells
Plasmodium yoelii [3] = experiment: Sporozoite infection assay, P. yoelii in Hepa1-6 cells; format: cell-based; settings: for Percent Infection: Hepa1-6 Cells, Plasmodium yoelii
Plasmodium falciparum = experiment: Sporozoite invasion assay, P. falciparum in HepG2-CD81 cells; format: cell-based; settings: for Percent Infection: HepG2-CD81, Plasmodium falciparum, 400 uM compound
Procedure: as §1, §2, §3

Row | Structure (SMILES) | Binding (change in response units) (CD81-LEL) [response units] | Dissociation 1 (change in response units) (CD81-LEL) [response units] | Dissociation 2 (change in response units) (CD81-LEL) [response units] | Inhibition of JS-81 Binding (%) ([1]; 50 μM ligand, Raji cells) | Inhibition of JS-81 Binding (%) ([1]; 100 μM ligand, Raji cells) | Inhibition of JS-81 Binding (%) ([1]; 400 μM ligand, Raji cells) | other results
1 | c1cncc(C2CCCC[NH2+]2)c1 (stereo in doubt) [Ligand 87504, 3-[(2S)-piperidin-2-yl]pyridine] | 72 | 57.9 | 42.6 |  |  |  | binding-dissociation behavior (in words) (CD81-LEL): best binding and dissociation; also recorded: most desirable binding-dissociation behavior; also recorded: best binding-dissociation behavior; inhibition at 50 µM ([1]; Raji): 0%; inhibition at 100 µM ([1]; Raji): 6%; inhibition at 400 µM ([1]; Raji): 20%
2 | CC(C)(C)c1ccc(NS(=O)(=O)c2ccc(N)cc2)cc1 [Ligand 7436] |  |  |  | 0 | 12 | 11 | 
3 | CCC(C)(C)c1ccc(Oc2cccc(C(=O)O)c2)cc1 [Ligand 7962] | 43.6 | 14.7 | 10.1 |  |  |  | Percent Infection (Plasmodium yoelii [2]): 0%; effect on infection (in words) (Plasmodium yoelii [2]; P. yoelii, HepG2-CD81): inhibit; also recorded: strongest inhibitory effect; percentage of infection inhibition (Plasmodium yoelii [2]; P. yoelii, HepG2-CD81): 100%; Percent Infection (Plasmodium berghei): 0%; percentage of infection inhibition (Plasmodium berghei; P. berghei, Hepa1-6): 100%; effect on infection (in words) (Plasmodium berghei; P. berghei): Inhibition; Percent Infection (Plasmodium yoelii [3]): 0%; percentage of infection inhibition (Plasmodium yoelii [3]; P. yoelii, Hepa1-6): 100%; Percent Infection (Plasmodium falciparum): 0%; effect on infection (in words) (Plasmodium falciparum; P. falciparum): inhibit the infection; percentage of infection inhibition (Plasmodium falciparum; P. falciparum, HepG2-CD81): 100%; inhibition at 50 µM ([1]; 50 μM ligand, Raji cells): 0%; inhibition at 100 µM ([1]; 100 μM ligand, Raji cells): 0%; inhibition at 400 µM ([1]; 400 μM ligand, Raji cells): 19%
4 | O=C(O)c1ccc(N2CCCCC2)cc1O [Ligand 23895] |  |  |  | 0 | 0 | 17 | 
5 | Cc1ccc(-c2cc(C(=O)O)c3ccccc3n2)c(C)c1 [Ligand 25678] |  |  |  | 0 | 4 | 19 | 
6 | O=C(O)c1cc2cc(OCc3ccccc3)ccc2[nH]1 [Ligand 30930, 5-phenylmethoxy-1H-indole-2-carboxylic acid] | 38.6 | 26.8 | 21.8 |  |  |  | inhibition at 50 µM ([1]; 50 μM ligand, Raji cells): 0%; inhibition at 100 µM ([1]; 100 μM ligand, Raji cells): 0%; inhibition at 400 µM ([1]; 400 μM ligand, Raji cells): 14%
7 | NC(N)=N/N=C\c1c(Cl)cccc1Cl [Ligand 68982] |  |  |  | 0 | 13 | 15 | 
8 | CSc1ccc2c(c1)C(N1CCN(C)CC1)Cc1ccccc1S2 (stereo not shown) [Ligand 281816] |  |  |  |  |  |  | binding to CD81 by SPR (in words) (CD81-LEL): bind to CD81-LEL; inhibition of anti-CD81 binding (in words) ([1]; 100 uM and 400 uM): inhibit anti-CD81 binding to CD81-LEL in a dose dependent manner

More lines, main results first:

Row | Binding (change in response units) (CD81-LEL) [response units] | Dissociation 1 (change in response units) (CD81-LEL) [response units] | Dissociation 2 (change in response units) (CD81-LEL) [response units] | Inhibition of JS-81 Binding (%) ([1]; 50 μM ligand, Raji cells) | Inhibition of JS-81 Binding (%) ([1]; 100 μM ligand, Raji cells) | Inhibition of JS-81 Binding (%) ([1]; 400 μM ligand, Raji cells) | Structure (SMILES) | other results
9 |  |  |  | 0 | 0 | 52 | CNC1(C(N)=O)CCNCC1 [Ligand 75846] | 
10 | 14.3 | 18.9 | 11.3 |  |  |  | O=C(O)Cn1ccc2ccccc21 [Ligand 75866, 2-indol-1-ylacetate] | Percent Infection (Plasmodium yoelii [2]): 42.6%; effect on infection (in words) (Plasmodium yoelii [2]; P. yoelii, HepG2-CD81): inhibit; also recorded: inhibitory effect; Percent Infection (Plasmodium berghei): 135%; effect on infection (in words) (Plasmodium berghei; P. berghei): didn't inhibit; Percent Infection (Plasmodium yoelii [3]): 122%; effect on infection (in words) (Plasmodium yoelii [3]; P. yoelii, Hepa1-6 cells): didn't inhibit; Percent Infection (Plasmodium falciparum): 84.2%
11 | 6.7 | 16.8 | 7.9 |  |  |  | O=C(Cn1ccc(=O)[nH]c1=O)Nc1ccc(C(=O)O)c(O)c1 [Ligand 93033, 4-[[2-(2,4-dioxopyrimidin-1-yl)acetyl]amino]-2-hydroxybenzoate] | binding-dissociation behavior (in words) (CD81-LEL): comparable binding and dissociation; inhibition at 50 µM ([1]; 50 μM ligand, Raji cells): 0%; inhibition at 100 µM ([1]; 100 μM ligand, Raji cells): 0%; inhibition at 400 µM ([1]; 400 μM ligand, Raji cells): 16%
12 | 36.6 | 35.9 | 28.1 |  |  |  | CC(C)=CCC1=C(OCC(=O)O)C(=O)c2ccccc2C1=O [Ligand 98026, 2-[3-(3-methylbut-2-enyl)-1,4-dioxonaphthalen-2-yl]oxyacetate] | inhibition at 50 µM ([1]; 50 μM ligand, Raji cells): 0%; inhibition at 100 µM ([1]; 100 μM ligand, Raji cells): 0%; inhibition at 400 µM ([1]; 400 μM ligand, Raji cells): 21%
13 |  |  |  | 0 | 0 | 19 | O=C(O)c1cc(O)ccc1N=Nc1ccccc1 [Ligand 106863] | 
14 |  |  |  | 0 | 12 | 26 | NC(=O)NC(=O)c1nccnc1C(=O)O [Ligand 117922] | 
15 |  |  |  | 0 | 0 | 24 | CC(=NO)C1CC(CC(=O)O)C1(C)C (stereo not shown) [Ligand 127947] | 
16 |  |  |  | 0 | 6 | 26 | NS(=O)(=O)c1ccc(N=Nc2c(O)c(C(=O)O)cc3ccccc23)cc1 [Ligand 134137] | 
17 |  |  |  | 0 | 54 | 12 | O=C(O)/C=C/C(=O)Nc1cccc2cccnc12 [Ligand 144958] | 
